In patent publication US20090060871A1, “ADMINISTRATION OF AGONIST-ANTAGONIST IN OPIOID-DEPENDENT PATIENTS” (priority 2006, published 2009):
Structures can show the parent of a compound that is named as a salt.

Legend:
opioid-dependent patient = test: Clinical case reports: nalbuphine 2 cc IM twice a day in opioid-dependent patients (Examples 1A-7A); type: in vivo, human
[1] = tested on: HIV-infected, opioid-dependent patient; test: Average adherence to ARV regimen during nalbuphine administration; type: in vivo, human
Experimental: Compliance with a treatment regimen and in particular to an ARV regimen is determined using an “average adherence” value calculated using the formula: […]
where A is the number of tablets or gel capsules required by the protocol to be administered to a patient over four weeks; and B is the number of tablets or gel capsules prescribed but actually not taken by a patient over the same period of time.

[2] = tested on: IDU (injectable drug users); test: Pilot study of Nalbuphine administration to IDU (injectable drug users), Example 8A; type: in vivo, human
Text: A pilot study was initiated to evaluate treatment with Nalbuphine (agonist-antagonist) in the context of HIV prevention, treatment and care interventions. The first pilot study of the effects of Nalbuphine administration to IDU (injectable drug users) started at the 8th of August 2006 in Moscow. It is still being conducted on outpatient basis.
Duration of individual treatment varied from patient to patient (from 10 days to 180 days) depending on patient's condition, life-style, substance abuse history, etc. The frequency of administration varied from 20 mg per patient bid (initially) to 20 mg per patient per week (after 30 days).
The objective of the study is to compare this method with the other methods of drug treatment typical for Russia, and to measure the effects of out-patient Nalbuphine administration using following criteria:
The clinical trial included 19 clients, all with simultaneous codeine addiction, 7 patients living with AIDS, 4 being multiple substance users. In all cases, the patient was a difficult case (5-11 years of heroin abuse). 3 of the patients had very high (3-5 g a day) doses of heroin abuse.
All patients were between 18-50 years old, diagnosed with opiate abuse (in some cases in combination with other substances). They were admitted to the study after three days of opiate abstinence.
Patients with psychiatric, oncological, diabetic conditions, chronic kidney illnesses, and pregnancy were excluded from the study.

[3] = tested on: opioid-dependent patients; test: Study of 28 patients who received Nalbuphine for up to 6 months, Example 9A; type: in vivo, human
Text: The results of a study of 28 patients who received Nalbuphine for up to 6 months are as follows.

[4] = in vivo; cited from earlier work
[5] = water; cited from earlier work
[6] = Example 1A, M., 2 cc IM twice a day for 48 days
[7] = Example 3A, N., 2 cc IM twice a day for 30 days

In the case of `Oc1ccc2c3c1OC1[C@@H](O)CCC4(O)[C@@H](C2)N(CC2CCC2)CC[C@]314` (stereo partly drawn) [nalbuphine, 17-(cyclobutylmethyl)-4,5α-epoxymorphinane-3,6α-14-triol], the “aggravation of opportunistic infections or HCV” value (“aggravation” for short) (opioid-dependent patient; [6]) is reported as “No aggravation”, the craving (opioid-dependent patient; [6]) is reported as “profound decrease in craving” and the “desire for drug use” value (opioid-dependent patient; Example 2A, D., 2 cc IM twice a day for 52 days) is reported as “denies desire for drug use”. The “aggravation” value (opioid-dependent patient; Example 3A, N.) was “No aggravation”, the cravings for drugs (opioid-dependent patient; [7]) was “cravings for drugs decreased” and the “pain (chronic osteomyelitis)” value (opioid-dependent patient; [7]) was “pain relief”. For the same compound, the “aggravation” value (opioid-dependent patient; Example 5A, V.) was “No aggravation”, the alcohol problems (opioid-dependent patient; Example 5A, V.) was “problems with alcohol persist” and the “aggravation” value (opioid-dependent patient; Example 6A, L.) was “No aggravation”. The drug cravings (opioid-dependent patient; Example 6A, L.) was “drug cravings decreased”, the attempts of suicide (opioid-dependent patient; Example 6A, L., multiple earlier attempts) was “No attempts of suicide” and the “Average adherence to ART during April” value ([1]; Example 3A, N., 98% in January-March 2006 before nalbuphine) was 100%. The “Average adherence to ART during April” value ([1]; Example 4A, S., male, Stocrin+Combivir, 76% in January-March 2006 before nalbuphine) was 97%, the “Average adherence to ART during April” value ([1]; Example 5A, V., Stocrin and Combivir, 70% in January-March 2006 before nalbuphine) was 95% and the “Average adherence to ART during April” value ([1]; Example 6A, L., Efavirenz and Combivir, 68% in January-March 2006 before nalbuphine) was 93%. The “Average adherence to ART during April” value ([1]; Example 7A, S., female, 98% in January-March 2006 before nalbuphine) was 93%, the “side effects or drug-drug interactions” value ([2]; 19 clients) was “No side effects or drug-drug interactions were observed” and the “involvement/adherence to HIV treatments” value ([2]; all HIV-positive patients) was “higher involvement/adherence”. The quality of life ([2]; all patients) was “improved quality of life”, the “patients who stopped heroin and codeine consumption” value ([2]; of 19 clients, 20 mg bid initially to 20 mg per week, 10 to 180 days, outpatient) was 18 patients and the “correlation between administrated dose and heroin consumption” value ([3]; 28 patients) was “inverse correlation”. For the same compound, the “overdose, side effects or new infections associated with injectable drugs” value ([3]; 28 patients) was “no observed instances of overdose, side effects or new infections”, the quality of life ([3]; 28 patients) was “improved” and the “people staying clean (periodic urine tests for opiates) while on therapy” value ([3]; 28 patients, up to 6 months) was “two thirds”. For the same compound, the “reduction of total heroin and other opiate consumption” value ([3]; 28 patients, up to 6 months) was “up to 75%”, the cravings for drug ([3]; all patients) was “clear reduction of cravings for drug” and the “compliance (adherence) to ARVT” value ([3]; patients already receiving ARVT) was “nearly perfect compliance (adherence)”.

In the case of `Oc1ccc2c3c1O[C@H]1[C@@H](O)CCC4(O)C(C2)N(CC2CCC2)CCC314` (stereo partly drawn) [nalbuphine hydrochloride, 17-(cyclobutylmethyl)-4,5α-epoxymorphinan-3,6α-14-triol hydrochloride], the plasma half life [4] is given as “about five” and the solubility [5] is given as “Water-soluble”.
